Type in all cases: binding
In assay [1] the target is T1, Geobacillus kaustophilus Old Yellow Enzyme (GkOYE, YP—148185.1) mutant Y28F (Geobacillus kaustophilus, UniProt Q5KXG9, Y28F).
T1 construct: made in house; host or cells: E. coli DH5alpha
Description: Titration of GkOYE mutant Y28F with pHBA.
Description: (§1) Mutants of GkOYE (Y28F, H164A, H167A; H164A/H167A; 2 clones each) were transformed into and expressed in E. coli DH5alpha.

Assay [2] concerns the target T2, Geobacillus kaustophilus Old Yellow Enzyme (GkOYE, YP—148185.1), wild type (Geobacillus kaustophilus, UniProt Q5KXG9).
T2 construct: made in house; host or cells: E. coli DH5α
T2 sequence (Q5KXG9 1-340): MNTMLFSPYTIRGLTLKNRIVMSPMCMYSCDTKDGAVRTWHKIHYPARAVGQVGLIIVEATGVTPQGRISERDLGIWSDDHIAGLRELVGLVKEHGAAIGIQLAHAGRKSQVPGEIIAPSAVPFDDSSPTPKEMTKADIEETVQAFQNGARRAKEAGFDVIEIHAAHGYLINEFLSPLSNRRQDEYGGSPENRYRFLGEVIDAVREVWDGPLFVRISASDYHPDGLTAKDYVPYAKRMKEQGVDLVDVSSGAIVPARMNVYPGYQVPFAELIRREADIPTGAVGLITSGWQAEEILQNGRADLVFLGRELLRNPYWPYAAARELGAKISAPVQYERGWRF
In words: Titration of wild type GkOYE with pHBA.
Description: as §1

For assay [3], the target named is T3, Geobacillus kaustophilus Old Yellow Enzyme (GkOYE, YP—148185.1) mutant H164A (Geobacillus kaustophilus, UniProt Q5KXG9, H164A).
T3 construct: made in house; host or cells: E. coli DH5alpha
In words: Titration of GkOYE mutant H164A with pHBA.
Description: as §1

For assay [4], the target named is T4, Geobacillus kaustophilus Old Yellow Enzyme (GkOYE, YP—148185.1) mutant H167A (Geobacillus kaustophilus, UniProt Q5KXG9, H167A).
T4 construct: made in house; host or cells: E. coli DH5alpha
In words: Titration of GkOYE mutant H167A with pHBA.
Description: as §1

Assay [5] has as its target T5, Geobacillus kaustophilus Old Yellow Enzyme (GkOYE, YP—148185.1) mutant H164A/H167A (Geobacillus kaustophilus, UniProt Q5KXG9, H164A/H167A).
T5 construct: made in house; host or cells: E. coli DH5alpha
Description: Titration of GkOYE double mutant H164A/H167A with pHBA.
Description: as §1

The structures appear in SMILES notation.

T5 sequence (Q5KXG9 whole entry H164A/H167A): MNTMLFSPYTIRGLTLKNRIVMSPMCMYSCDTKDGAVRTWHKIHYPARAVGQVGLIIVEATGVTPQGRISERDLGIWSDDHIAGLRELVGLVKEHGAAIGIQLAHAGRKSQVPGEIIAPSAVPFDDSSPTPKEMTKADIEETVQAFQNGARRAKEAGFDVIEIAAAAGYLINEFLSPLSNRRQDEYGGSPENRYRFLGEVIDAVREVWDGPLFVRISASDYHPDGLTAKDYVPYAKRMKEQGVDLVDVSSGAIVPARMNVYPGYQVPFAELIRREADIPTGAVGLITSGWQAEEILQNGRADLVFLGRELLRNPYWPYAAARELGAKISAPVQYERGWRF
T4 sequence (Q5KXG9 whole entry H167A): as the sequence (Q5KXG9 whole entry H164A/H167A) above, with A164H counted along it
T1 sequence (Q5KXG9 whole entry Y28F): as the sequence (Q5KXG9 whole entry H164A/H167A) above, with Y28F, A164H, A167H counted along it
T3 sequence (Q5KXG9 whole entry H164A): as the sequence (Q5KXG9 whole entry H164A/H167A) above, with A167H counted along it

Broadly, the Kd is the free concentration of one partner at which half of the binding sites on the other are occupied at equilibrium, for simple one-to-one binding. Low values mean higher affinity, high ones lower affinity. `O=Cc1ccc(O)cc1` [pHBA]: the Kd in assay [1] was 1000 to 10000 µM; in assay [2] it was 3.1 µM; in assay [3], 1000 to 10000 µM; in assay [4], 1000 to 10000 µM; in assay [5] it was 1000 to 10000 µM.
